According to patent publication US20020193587A1, “Penicillin crystal and process for producing the same” (priority 2000, published 2002):

Assay: Storage stability in sealed test tubes at room temperature for 1 year, purity determined by HPLC
Assay type: physicochemical
Conditions: 10 g in sealed test tube, stored at room temperature (5 to 35° C.) for 1 year, starting purity 100% (Examples 1, 2), 79% (Comparative Example 1), 93% (Comparative Example 2)
Procedure: A test tube was charged with 10 g of each of the TAZB crystal of Example 1 (purity 100%), the TAZB crystal of Example 2 (purity 100%), the TAZB oily substance of Comparative Example 1 (purity 79%), and the TAZB amorphous powder of Comparative Example 2 (purity 93%). The test tubes were sealed and stored at room temperature (5 to 35° C.) for 1 year after which their purity was determined by HPLC.

Substance | purity after storage
diphenylmethyl 2-methyl-2-triazolylmethylpenam-3-carboxylate 1,1-dioxide [Comparative Example 1] | 52%
diphenylmethyl 2-methyl-2-triazolylmethylpenam-3-carboxylate 1,1-dioxide [Example 2] | 99%
diphenylmethyl 2-methyl-2-triazolylmethylpenam-3-carboxylate 1,1-dioxide [Comparative Example 2] | 81%
